From patent US20250179045A1, “LPAR1 ANTAGONISTS AND USES THEREOF” (Contineum Therapeutics, Inc., priority 2021, published 2025)

Molecular target: human LPA1 (Homo sapiens, UniProt Q92633)
Assay: In vitro functional assay of lysophosphatidic acid receptor 1 activity (calcium flux)
Type: cell-based
Conditions: B103 cells stably expressing human LPA1; Fluo-4 NW calcium flux after lysophosphatidic acid (18:1) at EC80; compounds 100 pM to 10 μM; read-out: LPA1 IC50
Procedure: In vitro functional assay of lysophosphatidic acid receptor 1 activity
Primary compound plates were prepared in 100% DMSO (Sigma-Aldrich), secondary compound plates were prepared at 10× concentration in DiVEM (Invitrogen), and tertiary compound plates were prepared at 3x concentration in assay buffer containing HBSS (no Ca^+2/Mg^+2, Invitrogen) and 0.1% BSA (Sigma-Aldrich). Fluo-4 NW calcium assay dye (Invitrogen) was prepared as per manufacturer's recommendations in assay buffer. B103 cells stably expressing human LPA1(J. Chun lab, UCSD) were grown to confluency in DMEM media (Invitrogen) containing 10% FBS (ATCC), […] (Sigma-Aldrich) and […] Geneticin (Sigma-Aldrich), and detached with Accutase (Sigma-Aldrich) prior to assay. The freshly detached cells were resuspended in growth media and plated in black, clear-bottom 96-well plates (Costar) containing compound (i.e., secondary compound plate) at a density of 5×10^4 cells/well. Once plated, cells were left at room temperature for 30 minutes and then transferred to a 37° C., […] incubator for 24 hours. After 24 hours, the growth media was then removed and freshly prepared Fluo-4 NW calcium assay dye was added to cells. Compounds (i.e. tertiary compound plates) were then added back to the dye/cells, returned to the incubator for 30 minutes, and then kept at room temperature for an additional 30 minutes. Finally, lysophosphatidic acid (18:1) at the EC80 concentration was added and calcium flux measured using FlexStation 3 (Molecular Devices). Sigmoidal dose-response curves were generated by measuring […] over 45 sec and calculating the area under the curve. Dose response curves and IC50 values were generated using Prism (GraphPad). Compounds were tested at a final concentration range of 100 pM to 10 μM in 0.10% DMSO.

human LPA1, sequence (Q92633 whole entry): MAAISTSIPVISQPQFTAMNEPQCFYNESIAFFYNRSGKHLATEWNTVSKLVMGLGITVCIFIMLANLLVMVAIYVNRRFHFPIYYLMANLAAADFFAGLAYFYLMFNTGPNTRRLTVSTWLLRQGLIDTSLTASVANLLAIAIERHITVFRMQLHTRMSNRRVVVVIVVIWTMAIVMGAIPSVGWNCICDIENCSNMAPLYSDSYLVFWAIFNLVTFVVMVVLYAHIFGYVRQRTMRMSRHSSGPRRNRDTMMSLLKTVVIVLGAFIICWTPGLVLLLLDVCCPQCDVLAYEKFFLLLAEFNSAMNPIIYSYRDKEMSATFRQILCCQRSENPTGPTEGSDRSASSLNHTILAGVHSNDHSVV

SMILES | IC50
CNC1CC(C(=O)Nc2ccc(C)nc2OC(F)F)(c2ccccc2C(C)C)C1 (mixture of isomers) [Example 38, N-(2-(difluoromethoxy)-6-methylpyridin-3-yl)-1-(2-isopropylphenyl)-3-(methylamino)cyclobutane-1-carboxamide] | 100 to 1000 nM
CC(=O)N(C)C1CC(C(=O)Nc2ccc(C)nc2OC(F)F)(c2ccccc2C(C)C)C1 (mixture of isomers) [Example 43, N-(2-(difluoromethoxy)-6-methylpyridin-3-yl)-1-(2-isopropylphenyl)-3-(N-methylacetamido)cyclobutane-1-carboxamide] | 10 to 100 nM
Cc1ccc(NC(=O)C2(c3ccccc3C(C)C)CC(CC(=O)O)C2)c(OC(F)F)n1 (mixture of isomers) [Example 45, 2-(3-((2-(difluoromethoxy)-6-methylpyridin-3-yl)carbamoyl)-3-(2-isopropylphenyl)cyclobutyl)acetic acid] | < 10 nM
Cc1ccc(NC(=O)C2(c3ccccc3C(C)C)CC(CCO)C2)c(OC(F)F)n1 (mixture of isomers) [Example 49, N-(2-(difluoromethoxy)-6-methylpyridin-3-yl)-3-(2-hydroxyethyl)-1-(2-isopropylphenyl)cyclobutane-1-carboxamide] | 10 to 100 nM
Cc1ccc(NC(=O)C2(c3ccccc3C(C)C)CC(O)(C(F)(F)C(=O)O)C2)c(OC(F)F)n1 (mixture of isomers) [Example 53, 2-(3-((2-(difluoromethoxy)-6-methylpyridin-3-yl)carbamoyl)-1-hydroxy-3-(2-isopropylphenyl)cyclobutyl)-2,2-difluoroacetic acid] | < 10 nM
Cc1ccc(NC(=O)C2(c3ncccc3C(C)C)CC(O)C2)c(OC(F)F)n1 (mixture of isomers) [Example 57, N-(2-(difluoromethoxy)-6-methylpyridin-3-yl)-3-hydroxy-1-(3-isopropylpyridin-2-yl)cyclobutane-1-carboxamide] | 10 to 100 nM
Cc1ccc(NC(=O)C2(c3ccccc3C(C)C)CC(CC#N)C2)c(OC(F)F)n1 (mixture of isomers) [Example 63, 3-(cyanomethyl)-N-(2-(difluoromethoxy)-6-methylpyridin-3-yl)-1-(2-isopropylphenyl)cyclobutane-1-carboxamide] | 100 to 1000 nM
Cc1ccc(NC(=O)C2(c3ccccc3C(C)C)CC(N3CCC3=O)C2)c(OC(F)F)n1 (mixture of isomers) [Example 68, N-(2-(difluoromethoxy)-6-methylpyridin-3-yl)-1-(2-isopropylphenyl)-3-(2-oxoazetidin-1-yl)cyclobutane-1-carboxamide] | 10 to 100 nM
Cc1ccc(NC(=O)C2(c3ccccc3C(C)C)CC(S(N)(=O)=O)C2)c(OC(F)F)n1 (mixture of isomers) [Example 69, N-(2-(difluoromethoxy)-6-methylpyridin-3-yl)-1-(2-isopropylphenyl)-3-sulfamoylcyclobutane-1-carboxamide] | 10 to 100 nM
COc1ccc(NC(=O)C2(c3ccccc3C(C)C)CCC(O)CC2)c(OC(F)F)n1 (mixture of isomers) [Example 81, N-(2-(difluoromethoxy)-6-methoxypyridin-3-yl)-4-hydroxy-1-(2-isopropylphenyl)cyclohexane-1-carboxamide] | 10 to 100 nM
COc1ccc(NC(=O)C2(c3ccccc3C(C)C)CCC(NC(C)=O)CC2)c(OC(F)F)n1 (mixture of isomers) [Example 85, 4-acetamido-N-(2-(difluoromethoxy)-6-methoxypyridin-3-yl)-1-(2-isopropylphenyl)cyclohexane-1-carboxamide] | 100 to 1000 nM
COc1ccc(NC(=O)C2(c3ccccc3C(C)C)CCC3(CC2)NC(=O)NC3=O)c(OC(F)F)n1 (mixture of isomers) [Example 86, N-(2-(difluoromethoxy)-6-methoxypyridin-3-yl)-8-(2-isopropylphenyl)-2,4-dioxo-1,3-diazaspiro[4.5]decane-8-carboxamide] | 100 to 1000 nM
COc1ccc(NC(=O)C2(c3ccccc3C(C)C)CCC(C#N)CC2)c(OC(F)F)n1 (mixture of isomers) [Example 95, 4-cyano-N-(2-(difluoromethoxy)-6-methoxypyridin-3-yl)-1-(2-isopropylphenyl)cyclohexane-1-carboxamide] | 10 to 100 nM
COc1ccc(NC(=O)C2(c3ccccc3C(C)C)CCC(C(N)=O)CC2)c(OC(F)F)n1 (mixture of isomers) [Example 96, N^1-(2-(difluoromethoxy)-6-methoxypyridin-3-yl)-1-(2-isopropylphenyl)cyclohexane-1,4-dicarboxamide] | 100 to 1000 nM
COc1ccc(NC(=O)C2(c3ccccc3C(C)C)CCC(S(=O)(=O)N(C)C)CC2)c(OC(F)F)n1 (mixture of isomers) [Example 98, N-(2-(difluoromethoxy)-6-methoxypyridin-3-yl)-4-(N,N-dimethylsulfamoyl)-1-(2-isopropylphenyl)cyclohexane-1-carboxamide] | 100 to 1000 nM
Cc1ccc(NC(=O)C2(c3ccccc3C(C)C)CC(Cc3nnn[nH]3)C2)c(OC(F)F)n1 (mixture of isomers) [Example 112, 3-((1H-tetrazol-5-yl)methyl)-N-(2-(difluoromethoxy)-6-methylpyridin-3-yl)-1-(2-isopropylphenyl)cyclobutane-1-carboxamide] | 10 to 100 nM
COc1ccc(NC(=O)C2(c3ccccc3C(C)C)CC(=O)N(C)C2)c(OC(F)F)n1 (single isomer, unassigned) [Example 1, N-(2-(difluoromethoxy)-6-methoxypyridin-3-yl)-3-(2-isopropylphenyl)-1-methyl-5-oxopyrrolidine-3-carboxamide] | 10 to 100 nM
CC(C)c1ccccc1C1(C(=O)Nc2ncc(Cl)cc2OC(F)F)CC(=O)N(C)C1 (single isomer, unassigned) [Example 7, N-(5-chloro-3-(difluoromethoxy)pyridin-2-yl)-3-(2-isopropylphenyl)-1-methyl-5-oxopyrrolidine-3-carboxamide] | 100 to 1000 nM
COc1ccc(NC(=O)C2(c3ccccc3C(C)C)CNC(=O)C2)c(OC(F)F)n1 (single isomer, unassigned) [Example 8, N-(2-(difluoromethoxy)-6-methoxypyridin-3-yl)-3-(2-isopropylphenyl)-5-oxopyrrolidine-3-carboxamide] | < 10 nM
Cc1ccc(NC(=O)C2(c3ccccc3C(C)C)CC(NC3CC3)C2)c(OC(F)F)n1 (single isomer, unassigned) [Example 40-isomer A, 3-(cyclopropylamino)-N-(2-(difluoromethoxy)-6-methylpyridin-3-yl)-1-(2-isopropylphenyl)cyclobutane-1-carboxamide] | 100 to 1000 nM
Cc1ccc(NC(=O)C2(c3ccccc3C(C)C)CC(NC3CC3)C2)c(OC(F)F)n1 (single isomer, unassigned) [Example 40-isomer B, 3-(cyclopropylamino)-N-(2-(difluoromethoxy)-6-methylpyridin-3-yl)-1-(2-isopropylphenyl)cyclobutane-1-carboxamide] | 100 to 1000 nM
Cc1ccc(NC(=O)C2(c3ccccc3C(C)C)CC(C)(O)C2)c(OC(F)F)n1 (single isomer, unassigned) [Example 51-isomer A, N-(2-(difluoromethoxy)-6-methylpyridin-3-yl)-3-hydroxy-1-(2-isopropylphenyl)-3-methylcyclobutane-1-carboxamide] | 100 to 1000 nM
